From US11753433B2, “Methods of synthesizing substituted purine compounds” (Epizyme, Inc., priority 2013, dated 2023)

Experiments:
[1] = Dynamic vapor sorption (DVS) hygroscopicity; type: physicochemical; settings: at 80% RH, 25° C.
Protocol: (peak temperature) which is accompanied by 5.9 wt % weight loss up to ˜150° C. in the TGA curve (FIG. 3). […] A solid is considered moderately hygroscopic when water uptake at 25° C./80% RH is between 2-15 wt % based on criteria of European Pharmacopeia. […] Form B of EP-1 trihydrate (x is 3) is a trihydrate as confirmed by single crystal analysis. The experimental XRPD pattern of Form B matches well with the simulated one from single crystal data (FIG. 6). This was also confirmed by DSC and TGA data (FIG. 7 and FIG. 8, respectively). DSC data indicates Form B dehydrates at ˜132° C. […] Form B is slightly hygroscopic as evidenced by a weight change of ˜0.3% between 0% and 95% RH (FIG. 9), (data collection was programmed from 95% RH-0% RH-95% RH at a step size of 10% RH at 25° C.).

[2] = Solubility in Simulated Gastric Fluid (SGF) at 37° C.; type: physicochemical; settings: for Resulting Solid: XRPD; for Solubility: calculated using free base content
Protocol: To study if Form A and Form B would perform differently in stomach, the solubilities of Form A and Form B were measured in Simulated Gastric Fluid (SGF, see below for SGF preparation) at 37° C. […] The remaining solids after each time point were subject to XRPD analysis. […] Weigh appropriate amount of hydrochloride (HCl) and sodium chloride (NaCl) into a 1-L flask followed by addition of 1-L deionized water. The mixture was stirred until all solids are dissolved. Check pH value with a pH-meter and adjust the pH to 1.8 with HCl (1N) or NaOH (1N).

## CC(C)N(CC1O[C@@H](n2cnc3c(N)ncnc32)[C@H](O)[C@@H]1O)C1CC(CCc2nc3cc(C(C)(C)C)ccc3[nH]2)C1 (stereo partly drawn) [Form A, (2R,3R,4S,5R)-2-(6-amino-9H-purin-9-yl)-5-((((1r,3S)-3-(2-(5-(tert-butyl)-1H-benzo[d]imidazol-2-yl)ethyl)cyclobutyl)(isopropyl)amino)methyl)tetrahydrofuran-3,4-diol hydrate]
[1]
  water adsorption measured by dynamic vapor sorption (DVS): ~5.8 wt %
[2]
  Final pH: 5.1
  time of conversion of Form A to Form B in SGF: ≤ 15 min
[2]; 15 min
  Resulting Solid: Type B
  Solubility: 5.4 mg/mL
[2]; 30 min
  Resulting Solid: Type B
  Solubility: 5.5 mg/mL
[2]; 60 min
  Resulting Solid: Type B
  Solubility: 5.3 mg/mL
